# PMC5974752, “Bax/Tubulin/Epithelial-Mesenchymal Pathways Determine the Efficacy of Silybin Analog HM015k in Colorectal Cancer Cell Growth and Metastasis” (Frontiers in Pharmacology, 2018)
# Legend:
# [1] = system: CRL-1459; assay: MTT assay, normal cell line; format: cell-based; conditions: 72 h incubation, mean ± SD of three experiments
# Protocol: (§1) The 3-(4,5-dimethylthiazol-2-yl)-2,5-diphenyltetrazolium bromide (MTT) assay was used to determine the sensitivity of the different CRC cells to the novel silybin derivatives (Hussein et al., [2017]; Manivannan et al., [2017]). The cells were seeded at a density of 4,000–5,000 cells/well in 96 well plates and incubated with serial dilutions of the compounds (0, 0.1, 0.3, 1, 3, 10, 30, and 100 μM). The MTT dye (4 mg/ml) was added after 72 h of incubation and incubated with the cells for an additional 4 h at 37°C. Following incubation, the media was discarded and the formazan crystals were dissolved by adding 100 μL of DMSO to each well. A DTX 880 multimode detector (Beckman Coulter Life, Indianapolis IN, USA) was used to determine the absorbance readings at a wavelength of 570 nm. The IC50 values were determined based on 3 separate experiments, with each experiment done in triplicate. The selectivity of the compounds was determined by comparing their cytotoxicity for CRC to normal epithelial cell lines (CHO, and CRL1459).
# [2] = system: CRC cell lines (HCT116, LOVO, and S1); assay: MTT assay, CRC cell lines together; format: cell-based, human; conditions: MTT
# Protocol: as §1
# [3] = system: Bak; assay: Western blot in HCT116 cells; format: cell-based, human; conditions: 4 μM, overnight
# Protocol: (§2) HCT116 cells were lysed to obtain cytoplasmic and nuclear protein fractions, according to the protocol used in previous publications (Alhadidi and Shah, [2017]). Briefly, the cells were seeded in and incubated with 15k for overnight at 4μM. The cells were washed using ice-cold PBS and scraped using a cell scraper and collected in 15ml tubes. The cells were centrifuged and the PBS was discarded and replaced with 400 μl of buffer A (10 mM HEPES, pH 7.9, 0.1 mM EDTA, 0.1 mM EGTA, 10 mM KCl, 1 mM dithiothreitol, and 0.5 mM phenylmethylsulfonyl fluoride) in each tube. The cells were allowed to swell under in the buffer for 15 min on ice. Subsequently, 0.1% Nonidet P-40 was added to each suspension for 1 min to disturb the plasma membrane. The nuclei were precipitated by centrifugation at 13,000 rpm for 1 min at 4°C. The cytoplasmic proteins were collected in the supernatant and stored at −80°C. Two hundred μl of Buffer B (20 mM HEPES, pH 7.9, 1 mM EDTA, 1 mM EGTA, 400 mM NaCl, 1 mM dithiothreitol, and 1 mM phenylmethylsulfonyl fluoride) was added to the pellets and left for 30 min on ice with periodic mixing. The samples were centrifuged at 13,000 rpm for 15 min at 4°C to obtain the nuclear fraction (supernatant). The bicinchoninic acid (BCA) quantification assay was used to determine the concentration of protein in the cell extracts. The Western blot was done as previously described (Tiwari et al., [2013]). Rabbit α-tubulin, 1:4,000 dilution, rabbit Bax (1:1,000), rabbit BAK (1:1,000), rabbit β-Catenin (1:4,000), rabbit DVL3 (1:4,000), mouse β-actin (1:5,000), E-cadherin (1:4,000), and N-cadherin (1:4,000), antibodies were used. Membranes were then washed and incubated for 1 h with horseradish peroxidase-labeled (HRP) anti-rabbit and anti-mouse secondary antibodies (1:5,000 dilutions). ChemiDoc Imaging Systems from Bio-Rad, (Hercules, California USA) was used to detect the blots. Finally, proteins were quantified using the image J software. Data were calculated as ratios to β-actin.
# [4] = system: Bax (p21 and p18); assay: Western blot in HCT116 cells; format: cell-based, human; conditions: 4 μM, overnight, p < 0.001
# Protocol: as §2
# [5] = system: Bcl-2; assay: Western blot in HCT116 cells; format: cell-based, human; conditions: 4 μM, overnight, p < 0.05
# Protocol: as §2
# [6] = system: DVL3; assay: Western blot in HCT116 cells; format: cell-based, human; conditions: 4 μM, p < 0.01 vs vehicle
# Protocol: as §2
# [7] = system: E-cadherin; assay: Western blot in HCT116 cells; format: cell-based, human; conditions: 4 μM, overnight
# Protocol: as §2
# [8] = system: N-cadherin; assay: Western blot in HCT116 cells; format: cell-based, human; conditions: 4 μM, p < 0.01 vs control
# Protocol: as §2
# [9] = system: c-Myc; assay: Western blot in HCT116 cells; format: cell-based, human; conditions: 4 μM, p < 0.01 vs control
# Protocol: as §2
# [10] = system: caspase 3; assay: Western blot in HCT116 cells; format: cell-based, human; conditions: 4 μM, p < 0.05 vs control
# Protocol: as §2
# [11] = system: cyclin B1; assay: Western blot in HCT116 cells; format: cell-based, human; conditions: 4 μM, p < 0.01
# Protocol: as §2
# [12] = system: α-tubulin; assay: Western blot in HCT116 cells; format: cell-based, human; conditions: 4 μM, overnight, p < 0.01 vs vehicle
# Protocol: as §2
# [13] = system: LOVO cells; assay: Transwell migration assay; format: cell-based, human; conditions: 2 and 4 μM, 24 h, vs vehicle
# Protocol: (§3) The effect of compound 15k on the invasiveness of LOVO was tested using 24 trans-well inserts with an […]. The addition of the insert to the well forms two chambers (upper and lower), where the upper chamber was used to grow the cells on the porous membrane. The lower chamber was filled with 600 μl of cell-free DMEM medium. A 200 μl of cell suspension was added to each insert and allowed to attach for 1 h. The test compound was added in different concentrations and incubated with the cells for 24 h. […] Finally, the remaining migrated cells were fixed by methanol and dyed with 0.1% crystal violet dye and observed with an EVOS microscope. The number of migrated cells was counted and compared between the treated and control cells.
# [14] = system: COLO 205 cell line; assay: Transwell migration assay; format: cell-based; conditions: 2 and 4 μM, data not shown
# Protocol: as §3
# The development of cancer metastasis is dependent on the migration and invasive properties of cancerous cells (van Zijl et al., [2011]). The wound healing and transwell migration assays were used with LOVO cells, as a model for metastatic CRC as it is characterized by a high level of invasiveness (Fan et al., [2015]). The wound healing assay is a well-established method to detect and analyze cell migration potential (Liang et al., [2007]). […] The effect of compound 15k on the invasiveness of COLO 205 cell line was also measured using trans-well migration assay. […] 15j also reversed cell migration and metastasis at different concentrations.
structure (smiles),measurement,setting,value
O=C(/C=C/c1cccc(OCc2ccccc2)c1)c1ccc(O)cc1 [Compound 15k],IC50,[1],8.5 ± 0.7 µM
same,IC50,"[2]; Homo sapiens, range over HCT116, S1 and LOVO, read-out: IC50 in the CRC cells",1 to 2 µM
same,"selectivity, CRC cells compared to normal cells",[2]; vs CRL1459 and CHO,selectively cytotoxic
same,Bak levels,[3],no significant effect
same,cleavage of Bax p21 to p18,[4],induced the cleavage of the protein Bax (p 21)
same,levels of Bcl-2,[5],significantly decreased
same,levels of DVL3,[6],significantly decreased
same,E-cadherin expression (Western blot),[7],not significantly altered
same,level of N-cadherin,[8],significantly downregulated
same,levels of c-Myc protein,[9],significant decrease
same,cleavage of total caspase 3,[10],induced the cleavage of total caspase
same,expression levels of cyclin B1,[11],significant increase
same,expression of α-tubulin,[12],significant decrease
same,number of cells migrated through transwell,[13],significantly decreased the number of LOVO cells that migrated
same,trans-well migration,[14],significantly inhibited the migration
